Laboratory results as given in patent publication US9371570B2, “Mutant calreticulin for the diagnosis of myeloid malignancies” (CeMM—FORSCHUNGSZENTRUM FÜR MOLEKULARE MEDIZIN GmbH, priority 2013, dated 2016).

System: Ba/F3 cells expressing the empty vector (GFP), CALR wild type (CALR wt-GFP) or CALR mutant (CALR del52-GFP)
Test: Sensitivity of Ba/F3 cells to SAR302503 (CellTiter-Glo cell viability)
Type: cell-based, murine
Conditions: Ba/F3 CALR wild type vs CALR 52 base pair deletion mutant; 48 hours; dilution series, highest concentration 40 μM; 10 ng/ml interleukin-3; listed as JAK2 kinase inhibitor
Experimental: FIG. 7: The sensitivity of Ba/F3 cells to SAR302503. Ba/F3 cells expressing the empty vector (GFP), CALR wild type (CALR wt-GFP) or CALR mutant (CALR del52-GFP) were analyzed by defining cell viability after 48 hours in presence of […] SAR302503. For relative viability, relative luminescence units were normalized to the DMSO control. Error bars represent standard error of the mean.
The retrovirus was generated and cells were transduced as described before (Zuber et al, 2013). Briefly, PlatE cells (75% confluent in a 10 cm dish) were transfected with 20 μg of the respective viral vector using the Calcium Phosphate Transfection Kit (Sigma #CAPHOS). The medium was changed after 24 hours and viral supernatant was collected at 36, 40, 44 and 60 hours after transfection. […] The cells were analyzed for transduction efficiency by flow cytometry, 48 hours after the final transduction step. The GFP positive cells were sorted by FACS and the sorting efficiency was analyzed by flow cytometry.
To define the sensitivity to the inhibitor SAR302503 (Sanofi), Ba/F3 cells were plated in 96-well plates at 25000 cells per well in triplicates on a dilution series of SAR302503 (highest concentration 40 μM) and in presence of 10 ng/ml interleukin-3. After 48 hours cell viability was determined by the CellTiter-Glo® Luminescent Cell Viability Assay (Promega).

`Cc1cnc(Nc2ccc(OCCN3CCCC3)cc2)nc1Nc1cccc(S(=O)(=O)NC(C)(C)C)c1` [SAR302503] was tested, and the “sensitivity of cells to the JAK2 kinase inhibitor SAR302503 (relative cell viability)” value was “suppressed equally”.
